This data set concerns CCRIS mutagenicity, Ames/micronucleus/aberration tests. The data set can be described thus: CCRIS mutagenicity studies.
The mark [1] stands for this setting: Test System: AMES SALMONELLA TYPHIMURIUM, Strain/Indicator: TA98, Metabolic Activation: NONE, Method: PREINCUBATION
Setting [2] is: Test System: AMES SALMONELLA TYPHIMURIUM, Strain/Indicator: TA100, Metabolic Activation: NONE, Method: PREINCUBATION
Where [3] appears, read: Test System: AMES SALMONELLA TYPHIMURIUM, Strain/Indicator: TA1535, Metabolic Activation: NONE, Method: PREINCUBATION
Where [4] appears, read: Test System: HUMAN H1A1V2 CELLS, Strain/Indicator: TK LOCUS, Metabolic Activation: NONE, Method: SUSPENSION/PLATE.
[5] abbreviates: Test System: AMES SALMONELLA TYPHIMURIUM, Strain/Indicator: TA100, Metabolic Activation: NONE, Method: STANDARD PLATE.
Where [6] appears, read: Test System: AMES SALMONELLA TYPHIMURIUM, Strain/Indicator: TA98, Metabolic Activation: NONE, Method: STANDARD PLATE.
Setting [7] is: Test System: AMES SALMONELLA TYPHIMURIUM, Strain/Indicator: TA1535, Metabolic Activation: NONE, Method: STANDARD PLATE.

Our source for the mutagenic call values is PubChem BioAssay AID1259407 (Chemical Carcinogenesis Research Information System (CCRIS), 2018).

SMILES strings stand for the structures. Active and inactive are the calls of the source. No rule for the calls is given here.

On to `CN1C(CSCC(F)(F)F)Nc2cc(Cl)c(S(N)(=O)=O)cc2S1(=O)=O` (stereo not given), for which the mutagenic call (Test System: AMES SALMONELLA TYPHIMURIUM, Strain/Indicator: TA97, Metabolic Activation: HAMSTER, LIVER, S-9, AROCLOR 1254 (10 OR 30%), Method: PREINCUBATION) was “inactive; negative”; the mutagenic call (Test System: AMES SALMONELLA TYPHIMURIUM, Strain/Indicator: TA97, Metabolic Activation: NONE, Method: PREINCUBATION) was “inactive; negative”; the mutagenic call (Test System: AMES SALMONELLA TYPHIMURIUM, Strain/Indicator: TA97, Metabolic Activation: RAT, LIVER, S-9, AROCLOR 1254 (10 OR 30%), Method: PREINCUBATION) is “inactive; negative”; the mutagenic call (Test System: AMES SALMONELLA TYPHIMURIUM, Strain/Indicator: TA98, Metabolic Activation: HAMSTER, LIVER, S-9, AROCLOR 1254 (10 OR 30%), Method: PREINCUBATION) is “inactive; negative”; the mutagenic call under setting [1] is “inactive; negative”; the mutagenic call (Test System: AMES SALMONELLA TYPHIMURIUM, Strain/Indicator: TA98, Metabolic Activation: RAT, LIVER, S-9, AROCLOR 1254 (10 OR 30%), Method: PREINCUBATION) was “inactive; negative”. In addition, the mutagenic call by setting is: (Test System: AMES SALMONELLA TYPHIMURIUM, Strain/Indicator: TA100, Metabolic Activation: HAMSTER, LIVER, S-9, AROCLOR 1254 (10 OR 30%), Method: PREINCUBATION) “inactive; negative”; under setting [2], “inactive; negative”; (Test System: AMES SALMONELLA TYPHIMURIUM, Strain/Indicator: TA100, Metabolic Activation: RAT, LIVER, S-9, AROCLOR 1254 (10 OR 30%), Method: PREINCUBATION) “inactive; negative”; (Test System: AMES SALMONELLA TYPHIMURIUM, Strain/Indicator: TA1535, Metabolic Activation: HAMSTER, LIVER, S-9, AROCLOR 1254 (10 OR 30%), Method: PREINCUBATION) “inactive; negative”; under setting [3], “inactive; negative”; (Test System: AMES SALMONELLA TYPHIMURIUM, Strain/Indicator: TA1535, Metabolic Activation: RAT, LIVER, S-9, AROCLOR 1254 (10 OR 30%), Method: PREINCUBATION) “inactive; negative”.

With `c1cnc2c(c1)ccc1cccnc12`, the mutagenic call is “inactive; negative” (Test System: AMES SALMONELLA TYPHIMURIUM, Strain/Indicator: TA98, Metabolic Activation: HAMSTER, LIVER, S-9, AROCLOR 1254 (10%), Method: PREINCUBATION); “inactive; negative” under setting [1]; “inactive; negative” (Test System: AMES SALMONELLA TYPHIMURIUM, Strain/Indicator: TA98, Metabolic Activation: RAT, LIVER, S-9, AROCLOR 1254 (10%), Method: PREINCUBATION); “inactive; negative” (Test System: AMES SALMONELLA TYPHIMURIUM, Strain/Indicator: TA100, Metabolic Activation: HAMSTER, LIVER, S-9, AROCLOR 1254 (10%), Method: PREINCUBATION); “inactive; negative” under setting [2]; “inactive; negative” (Test System: AMES SALMONELLA TYPHIMURIUM, Strain/Indicator: TA100, Metabolic Activation: RAT, LIVER, S-9, AROCLOR 1254 (10%), Method: PREINCUBATION). The mutagenic call is, setting by setting: (Test System: AMES SALMONELLA TYPHIMURIUM, Strain/Indicator: TA100, Metabolic Activation: RAT, LIVER, S-9, PHENOBARBITAL AND 5,6-BENZOFLAVONE, Method: PREINCUBATION) “inactive; negative”; (Test System: AMES SALMONELLA TYPHIMURIUM, Strain/Indicator: TA1535, Metabolic Activation: HAMSTER, LIVER, S-9, AROCLOR 1254 (10%), Method: PREINCUBATION) “inactive; negative”; under setting [3], “inactive; negative”; (Test System: AMES SALMONELLA TYPHIMURIUM, Strain/Indicator: TA1535, Metabolic Activation: RAT, LIVER, S-9, AROCLOR 1254 (10%), Method: PREINCUBATION) “inactive; negative”; (Test System: AMES SALMONELLA TYPHIMURIUM, Strain/Indicator: TA1537, Metabolic Activation: HAMSTER, LIVER, S-9, AROCLOR 1254 (10%), Method: PREINCUBATION) “inactive; negative”; (Test System: AMES SALMONELLA TYPHIMURIUM, Strain/Indicator: TA1537, Metabolic Activation: NONE, Method: PREINCUBATION) “inactive; negative”. Further, the mutagenic call by setting is: (Test System: AMES SALMONELLA TYPHIMURIUM, Strain/Indicator: TA1537, Metabolic Activation: RAT, LIVER, S-9, AROCLOR 1254 (10%), Method: PREINCUBATION) “inactive; negative”; (Test System: MOUSE LYMPHOMA, Strain/Indicator: L5178Y (TK+/TK-), Metabolic Activation: NONE, Method: SUSPENSION/PLATE) “active; positive. reevaluation of results: positive”; (Test System: MOUSE LYMPHOMA, Strain/Indicator: L5178Y (TK+/TK-), Metabolic Activation: RAT, LIVER, S-9, AROCLOR 1254, Method: SUSPENSION/PLATE) “active; positive. reevaluation of results: positive”.

On to `C1=C2c3ccccc3CCC2CCC1` (stereo not given), for which the mutagenic call (Test System: AMES SALMONELLA TYPHIMURIUM, Strain/Indicator: TA98, Metabolic Activation: RAT, LIVER, S-9, SODIUM PHENOBARBITAL AND BETA-NAPHTHOFLAVONE, Method: STANDARD PLATE) is “active; positive” and the mutagenic call (Test System: AMES SALMONELLA TYPHIMURIUM, Strain/Indicator: TA100, Metabolic Activation: RAT, LIVER, S-9, SODIUM PHEOBARBITAL AND BETA-NAPHTHOFLAVONE, Method: STANDARD PLATE) was “active; positive”.

Turning to `c1ccc2c(c1)-c1cccc3c1c-2cc1c2ccccc2ccc31`, the mutagenic call under setting [4] is “inactive; negative”.

As for `Cn1cnc([N+](=O)[O-])c1-c1ccccc1`, under setting [5], the mutagenic call is “inactive; negative”.

With `Cc1ncc2c(n1)CCC2`, the mutagenic call is, setting by setting: under setting [6], “inactive; negative”; (Test System: AMES SALMONELLA TYPHIMURIUM, Strain/Indicator: TA98, Metabolic Activation: RAT, LIVER, S-9, Method: STANDARD PLATE) “inactive; negative”; under setting [5], “inactive; negative”; (Test System: AMES SALMONELLA TYPHIMURIUM, Strain/Indicator: TA100, Metabolic Activation: RAT, LIVER, S-9, Method: STANDARD PLATE) “inactive; negative”; under setting [7], “inactive; negative”; (Test System: AMES SALMONELLA TYPHIMURIUM, Strain/Indicator: TA1535, Metabolic Activation: RAT, LIVER, S-9, Method: STANDARD PLATE) “inactive; negative”. Also, the mutagenic call was “inactive; negative” (Test System: AMES SALMONELLA TYPHIMURIUM, Strain/Indicator: TA1537, Metabolic Activation: NONE, Method: STANDARD PLATE); “inactive; negative” (Test System: AMES SALMONELLA TYPHIMURIUM, Strain/Indicator: TA1537, Metabolic Activation: RAT, LIVER, S-9, Method: STANDARD PLATE); “inactive; negative” (Test System: AMES SALMONELLA TYPHIMURIUM, Strain/Indicator: TA1538, Metabolic Activation: NONE, Method: STANDARD PLATE); “inactive; negative” (Test System: AMES SALMONELLA TYPHIMURIUM, Strain/Indicator: TA1538, Metabolic Activation: RAT, LIVER, S-9, Method: STANDARD PLATE).

Consider `c1cc2c3c(cccc3c1)-c1c-2c2ccccc2c2ccccc12`, for which the mutagenic call under setting [4] is “inactive; negative”.

With `Cl/C=C(\Cl)C(Cl)Cl`, the mutagenic call is “active; positive” under setting [6]; “active; positive” under setting [5]; “active; positive” (Test System: AMES SALMONELLA TYPHIMURIUM, Strain/Indicator: TA100, Metabolic Activation: RAT, LIVER, S-9, AROCLOR 1254, Method: STANDARD PLATE); “active; positive” under setting [7].

For `O=[N+]([O-])c1cc2[nH]c3ccc4ccccc4c3c2c2cccc(O)c12`, the mutagenic call is, setting by setting: under setting [6], “active; positive”; (Test System: AMES SALMONELLA TYPHIMURIUM, Strain/Indicator: TA98, Metabolic Activation: RAT, LIVER, S-9, 3-METHYLCHOLANTHRENE, Method: STANDARD PLATE) “active; positive”; under setting [5], “active; positive”; (Test System: AMES SALMONELLA TYPHIMURIUM, Strain/Indicator: TA100, Metabolic Activation: RAT, LIVER, S-9, 3-METHYLCHOLANTHRENE, Method: STANDARD PLATE) “active; positive”.
